Reference: patent US20050282863A1, “Novel-N substituted dihydrobenzothiepino, dihydrobenzoxepino and tetrahydro benzocyclohepta indoles as selective estrogen receptor modulators” (Council of Scientific & Industrial Research, priority 2004, published 2005)

How the values were obtained:
[1] = system: chick fetal bones in culture; test: Inhibition in PTH-induced resorption of 45Ca from chick fetal bones in culture (antiresorptive activity in vitro); assay type: cell-based; conditions: Gallus gallus, 96 h, 100 μM; PTH-induced 45Ca resorption, 96 h culture; read-out: T/C ratio
Description: 5 μl of each concentration are used for evaluation of antiresorptive activity in vitro. In control experiments, 5 μl of appropriate solvent is used in lieu of the test compound. Femur bones are isolated from chick embryos on day 11 post-ovulation. The adhering soft connective tissue is completely removed. Each femur bone is then placed in a drop of phosphate buffered saline (PBS) and is transferred to BGJb culture medium containing ^45CaCl2 and incubated for 2 h. Labeled femur bones are washed 2-3 times with PBS and transferred to BGJb medium containing parathyroid hormone and cultured for 96 h in the presence or absence of the compound of invention or the vehicle in BGJb medium. Contralateral femur of each fetus serves as corresponding control. Culture medium with the respective treatment in each well is changed after 48 h. On termination of the culture at 96 h, bones are transferred to 0.1 N HCl for 24 h. Radioactivity due to ^45Ca in the spent medium collected at 48 and 96 h of culture and HCl extract at 96 h of culture is quantified by Liquid Scintillation Spectrophotometer in 10 ml of the scintillation fluid. Bone resorbing activity is expressed as percentage of ^45Ca released into the culture medium and the effect of the compound of invention as percent of the corresponding contra-lateral control or T/C ratio as shown below: [formula]
Appropriate solvents are selected from solvents like water, physiological saline, phosphate buffered saline, phosphate buffer, DMSO alone or in a suitable combination thereof.

[2] = system: immature ovariectomized rats; test: Estrogen antagonistic activity: inhibition in 17α-ethynylestradiol induced uterine weight gain in immature ovariectomized rats; assay type: in vivo, rat; conditions: Rattus norvegicus, 72 h; daily dose 10 mg/kg with 0.02 mg/kg 17-alfa-ethynylestradiol, 3 days; read-out: Percent inhibition in 17α-ethynylestradiol induced uterine weight gain
Description: Twenty-one-day-old immature female rats are bilaterally ovariectomized under light ether anaesthesia and after post-operative rest for 7 days, are randomized into different treatment groups. Each rat receives the compounds of the invention and 0.02 mg/kg dose of 17-alfa-ethynylestradiol in 10% ethanol-distilled water once daily for 3 consecutive days on days 28-30 of age. A separate group of animals receiving only 17-alfa-ethynylestradiol (0.02 mg/kg) in 10% ethanol-distilled water for similar duration are used for comparison. At autopsy on day 31 of age, vaginal smear of each rat is taken and uterus is carefully excised, gently blotted, weighed and fixed for histology and histomorphometry using image analysis. Inhibition in 17-alfa-ethynylestradiol-induced premature opening of vagina, cornification of vaginal epithelium, increase in uterine fresh weight, total uterine and endometrial area and uterine luminal epithelial cell height are taken as parameters for evaluation of estrogen antagonistic activity.

[3] = system: adult female rats; test: Post-coital antifertility efficacy in adult female rats; assay type: in vivo, rat; conditions: daily dose 10 mg/kg, oral, days 1-7 post-coitum
Excerpt: Adult female rats are caged overnight with coeval males of proven fertility and their vaginal smears are checked on the following morning. The day of presence of spermatozoa in the vaginal smear is taken as day 1 of pregnancy. Mated rats are isolated and randomized into various treatment groups and treated orally with the compound of invention or the vehicle on days 1-7/1-5 post-coitum. Animals of all the groups are autopsied on day 10 post-coitum and number and status of corpora lutea and implantation sites in each rat are recorded. The compounds of the present invention are considered active if there is complete absence of implantations in the uterus of all rats, in comparison to presence of normal implantations in the uterus of rats of vehicle control group.

[4] = system: immature ovariectomized rats; test: Estrogen agonistic activity: increase in uterine weight in immature ovariectomized rats; assay type: in vivo, rat; conditions: Rattus norvegicus, 72 h, daily dose 10 mg/kg, 3 days; percent of ovariectomized + vehicle group
Description: Twenty-one-day-old immature female rats are bilaterally ovariectomized under light ether anaesthesia and, after post-operative rest for 7 days, are randomized into different treatment groups. Each rat receives the compound of the invention once daily for 3 consecutive days on days 28-30 of age. A separate group of animals receiving only the vehicle for similar duration serves as control. A autopsy 24 h after the last treatment on day 31 of age, vaginal smear of each rat is taken and uterus is carefully exised, gently blotted, weighed and fixed for histology and histomorphometry using image analysis. Premature opening of vagina, cornification of vaginal epitelium, increase in uterine fresh weight, total uterine and endometrial area and uterine luminal epithelial cell height are taken as parameters for evaluation of estrogen agonistic activity in comparision to rats of vehicle control group.

[5] = target: T1, estrogen receptors (Rattus norvegicus, UniProt P06211); test: Relative binding affinity (RBA) to estrogen receptors, 3H-estradiol competition assay; parameters: key: % of 17-beta-estradiol binding affinity (estradiol = 100); conditions: relative to 17-beta-estradiol (=100, percentage value); rat uterine cytosol, 3H-E2, 18 hrs at 4° C.
T1 construct: Aliquot of uterine cytosol (200 μl; 2 uteri per ml) prepared in TEA buffer; from tissue; host or cells: uterine cytosol of immature estradiol-primed 20-21 day old rats
T1 sequence (P06211 1-600): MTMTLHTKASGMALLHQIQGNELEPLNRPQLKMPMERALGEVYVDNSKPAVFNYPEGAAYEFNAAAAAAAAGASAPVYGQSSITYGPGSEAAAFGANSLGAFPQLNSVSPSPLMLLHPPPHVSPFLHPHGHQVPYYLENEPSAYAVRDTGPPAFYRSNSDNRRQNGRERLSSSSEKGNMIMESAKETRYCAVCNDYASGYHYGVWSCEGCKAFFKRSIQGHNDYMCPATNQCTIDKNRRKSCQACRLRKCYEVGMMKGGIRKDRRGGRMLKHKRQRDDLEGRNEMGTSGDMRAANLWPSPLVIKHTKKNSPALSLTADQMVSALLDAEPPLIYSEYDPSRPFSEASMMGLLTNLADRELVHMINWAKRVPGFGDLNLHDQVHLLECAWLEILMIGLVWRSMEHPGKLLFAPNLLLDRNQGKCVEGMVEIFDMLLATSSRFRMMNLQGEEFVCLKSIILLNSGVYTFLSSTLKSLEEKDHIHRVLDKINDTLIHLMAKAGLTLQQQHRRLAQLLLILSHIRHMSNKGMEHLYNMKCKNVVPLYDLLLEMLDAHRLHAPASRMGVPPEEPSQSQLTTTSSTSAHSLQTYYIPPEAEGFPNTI
Description: The relative binding affinity (RBA) of the compounds for estrogen receptor is determined by competition assay, employing ^3H-estradiol (^3H-E2) as the radioligand. The test ligands and ^3H-E2 are incubated at 4° C. with cystol estrogen receptors obtained from uteri of immature estradoil-primed (1 μg/rat 24 h before autopsy) 20-21 days old rats. Aliquot of uterine cytosol (200 μl; 2 uteri per ml) prepared in TEA buffer (10 mM Tris, 1.5 mM EDTA, 0.02% sodium azide, pH 7.4) are incubated in duplicate with a fixed concentration of ^3H-E2 in the absence or presence of various concentrations of the competitor substance dissolved in 30 μl of the TEA buffer containing DMF as co-solvent (final concentration of DMF in the incubation mixture never exceeded 5%) for 18 hrs at 4° C. At the end of this period, dextran coated charcoal (5% Norit 0.5% dextran) suspension in 100 μl of TEA buffer is added to each tube, briefly vortexed and allowed to stand for 15 minutes at 4° C. The mixture is centrifuged at 800 g for 10 minutes and the supernatants counted for radioactivity in 10 ml of a dioxane-based scintillation fluid. RBA of the text compound is computed from a graph plotted between percent bound radioactivity verses log concentration of the test substance. […] This when multiplied with 100 gives the percentage value designated as RBA.

[6] = system: MCF-7 cells; test: Antiproliferative/cytotoxic activity in cultured MCF-7 cells (SRB assay); assay type: cell-based; conditions: Homo sapiens, MCF7, 48 h, read-out: LC50, Test-4; MCF-7, 48 h
Description: The procedure is based on the following methods: New calorimetric assay for anticancer drug screening, Skehan et al., J Natn Cancer Inst, 82,1107, 1990 and Feasibility of a high-flux anticancer drug screen using a diverse panel of cultured human tumor cell lines, J Natn Cancer Inst, 83,757, 1991.
A fully confluent flask of MCF-7 cells in trypsinized and 10^4 cells/well are plated in a 96 welled flat bottomed plate in 200 μl Minimum Essential Medium (MEM), pH 7.4 and allowed to attach for 24 h at 37° C. in a humidified CO2 incubator. Subsequently, the compound of invention dissolved in DMSO or ethanol is added at a specified concentration and further incubated for 48 h as before. The cells are then fixed in 50 μl cold 50% TCA and incubated for 1 h at 4° C. The supernatant is discarded and the plate is washed five times with deionized water and air-dried. 100 μl of 0.4% (w/v) Sulforhodamine B (SRB) in 1% acetic acid is added to each well and incubated at room temperature for 30 minutes. Unbound SRB is removed by five washes with chilled 1% acetic acid and the plate is air-dried. 200 μl of unbuffered 10 mM Tris base is added to solublize the bound stain for 5 minutes at room temperature and O.D. is read at 560 nm in a plate reader. The graph is plotted between O.D. and concentration and LC50 is calculated with respect to tamoxifen, which is used as a positive control.

Row | SMILES | activity at 100 µM [1] [%] | inhibition in vivo at 10 mg/kg/day [2] [%] | % Efficacy [3] | change in vivo at 10 mg/kg [4] [%] | melting point [°C] | RBA [5] | responders at 10 mg/kg ([3]; Rattus norvegicus, 240 h) [%] | CC50 [6] [µM]
1 | c1ccc2c(c1)OCCc1c-2n(Cc2ccc(OCCN3CCCCC3)cc2)c2ccccc12 [Example number 56, 12-[4-(2-Piperidin-1-yl-ethoxy)benzyl]-6,7-dihydro-12H-benzoxepino[5,4-b]indole] | 103 | 12.8 | Inactive | 15.4 | – | – | – | –
2 | c1ccc2c(c1)OCCc1c-2n(Cc2ccc(OCCCN3CCCCC3)cc2)c2ccccc12 [Example number 58, 12-[4-(3-Piperidin-1-yl-propyloxy)benzyl]-6,7-dihydro-12H-benzoxepino[5,4-b]indole] | 98 | 11.4 | Inactive | 7.85 | 129 to 130 | – | – | –
3 | c1ccc2c(c1)OCCc1c-2n(CCN2CCCCC2)c2ccccc12 [Example number 45, 12-[2-(Piperidine-1-yl)ethyl]-6,7-dihydro-12H-benzoxepino[5,4-b]indole] | – | – | Inactive | – | 103 | – | – | –
4 | c1ccc2c(c1)OCCc1c-2n(CCCN2CCCCC2)c2ccccc12 [Example number 47, 12-[3-(Piperidine-1-yl)propyl]-6,7-dihydro-12H-benzoxepino[5,4-b]indole] | – | 17.2 | Inactive | 8.31 | 65 to 66 | – | – | –
5 | CCCCN(C)CCCCCn1c2c(c3cc(O)ccc31)CCSc1cc(O)ccc1-2 [Example number 37] | – | – | – | – | 134 to 136 | 0.36 | – | –
6 | Oc1ccc2c(c1)c1c(n2CCCCCN2CCCC2)-c2ccccc2SCC1 [Example number 30, 9-Hydroxy-12-[5-(pyrrolidine-1-yl)pentyl]-6,7-dihydro-12H-benzothiepino [5,4-b]indole] | – | – | Inactive | – | 217 to 219 | <0.001 | – | –
7 | c1ccc2c(c1)SCCc1c-2n(Cc2ccc(OCCCN3CCCCC3)cc2)c2ccccc12 [Example number 41, 12-[4-(3-Piperidin-1-yl-propyloxy)benzyl]-6,7-dihydro-12H-benzothiepino [5,4-b]indole] | 108 | 6.41 | Inactive | 42.9 | 70 to 71 | – | – | –
8 | c1ccc2c(c1)SCCc1c-2n(Cc2ccc(OCCN3CCCCC3)cc2)c2ccccc12 [Example number 39, 12-[4-(2-Piperidin-1-yl-ethoxy)benzyl]-6,7-dihydro-12H-benzothiepino [5,4-b]indole] | 85 | 3.7 | Inactive | 83.3 | – | – | – | –
9 | c1ccc2c(c1)SCCc1c-2n(CCN2CCCCC2)c2ccccc12 [Example number 5, 12-[2-(Piperidine-1-yl)ethyl]-6,7-dihydro-12H-benzothiepino [5,4-b]indole] | – | – | Inactive | – | 118 | – | – | –
10 | c1ccc2c(c1)SCCc1c-2n(CCCCCN2CCCCC2)c2ccccc12 [Example number 11, 12-[5-(Piperidine-1-yl)pentyl]-6,7-dihydro-12H-benzothiepino [5,4-b]indole] | 77 | 2 | – | 50 | – | – | 50 | 8.3
